# Assay results published in patent US20080312271A1, “AZABENZIMIDAZOLYL COMPOUNDS” (Pfizer Inc., priority 2006, published 2008).
# Molecular target: T1, mGluR2 receptor (metabotropic glutamate receptor 2) (Homo sapiens, UniProt Q14416)
# T1 construct: expressed in transfected cells
# Assay: mGluR2 Potentiator Screen, FLIPR, EC10-EC20 glutamate challenge
# Assay type: cell-based
# Settings: not given
# Description: Procedure for mGluR2 Potentiator Screen NLB methods EC10-EC20 Challenge Cell Culture and Plating:
# Cells used for this screen are HEK cells stably transfected with the mGluR2 receptor (metabotropic glutamate receptor 2) and the Gα15 G protein. Clones were identified by functional activity (FLIPR). Cells are grown in growth media containing: DMEM High Glucose with Glutamine and Na Pyruvate (GIBCO), 10% (v/v) Heat inactivate FBS (GIBCO), G418 500 ug/ml (from 50 mg/ml stock) (GIBCO) and Blasticidin 3 ug/ml (from 5 mg/ml stock made in H2O) (Invitrogen).
# 2 days before the assay cell are trypsinized with 0.25% trysin/EDTA (GIBCO), spun down at 1000 rpm for 5 minutes, resuspended in growth media and plated on polystyrene 384 well black wall 1 clear bottom poly-D-lysine coated plates at a density of approximately 18,000 cells/well in a volume of 50 μL per well. One day before the assay the growth media is removed from the plates by flicking, and replaced with media containing DMEM High Glucose without Glutamine and Na Pyruvate (GIBCO) and 10% (v/v) dialyzed FBS (GIBCO). The reason for the removal of glutamine the day before the assay is to minimize the amount of glutamate that will be present during the assay, as endogenous glutarnate released from the cells can reduce the fluorescent response and interfere with the FLIPR screen.
# FLIPR Methods and Data Analysis:
# On the day of the assay, the FLIPR assay is performed using the following methods.
# The pH is adjusted to 7.4 with 1 M NaOH. Prepare a 2 mM (approx.) stock solution of Fluo-4,am (Molecular Probes) dye in DMSO-22 μl DMSO per 50 ug vial (440 μL per 1 mg vial). Make a 1 mM (approx.) flou-4, PA working solution per vial by adding 22 μl of 20% pluronic acid (PA), (Molecular Probes) in DMSO to each 50 ug vial (440 μL per 1 mg vial). Prepare a 250 mM Probenecid (Sigma) stock solution by dissolving 0.71 g into 5 ml 1N NaOH and 5 ml assay buffer (for each liter of assay wash buffer)L Make 4 uM (approx.) dye incubation media by adding […] per 11 ml DMEM high glucose without glutamine (220 ml per 1 mg vial). Add 110 μL probenecid stock per 11 ml (2.5 mM final [concentration]). To the dye media add 3 units/ml of glutamic-pyruvic transaminase (GPT, Sigma) and 3 mM Na Pyruvate. The assay has worked with dye concentrations from 2 uM to 8 uM dye as well. To the assay buffer from drug preparation, add 1.83 mls DMSO and 400 μL 15.8% P104 (from New Leads biology) per liter for final concentrations of 0.18% DMSO and 0.006% P104. To the assay buffer for cell washing, add probenecid in the same manner and concentration that was used for the dye media.
# Remove growth media from cell plates by flicking. Add 50 μl/well dye solution. Incubate 1 hour at 37° C. and 5% CO2. Remove dye solution and wash 3 times with assay buffer+probenecid (100 μl probenecid stock per 10 ml buffer), leaving 30 μL/well assay buffer. Wait at least 10-15 minutes. Compounds and agonist challenge additions are performed with the FLIPR. The 1st addition is for test compounds, which are added as 15 μL of 4×[concentration] of potentiator. The second 2nd addition is 15 μL of 4×[concentration] of agonist or challenge. This achieves 1× concentration of all compounds only after 2nd addition. The 1st and 2nd additions are performed separately using the FLIPR, which give 2 different data files. Compounds are pretreated at least 30 minutes before agonist addition,
# Results are analyzed by dividing the peak fluorescent value of the FLIPR response by the […] to achieve a ratio response. The ratios are then analyzed by curve fitting programs. […] Maximum values for dose response curves (forced fitting) are derived from standards on the plate.
# Compound Preparation and Glutamate Challenge:
# Compounds are delivered as 10 mM DMSO stocks or as powders, Powders are solubilized in DMSO at 10 mM (as solubility allows). Compounds are sonicated in a heated water bath (35-40° C.) for at least 20 minutes.
# T1 sequence (Q14416 19-872, species assumed): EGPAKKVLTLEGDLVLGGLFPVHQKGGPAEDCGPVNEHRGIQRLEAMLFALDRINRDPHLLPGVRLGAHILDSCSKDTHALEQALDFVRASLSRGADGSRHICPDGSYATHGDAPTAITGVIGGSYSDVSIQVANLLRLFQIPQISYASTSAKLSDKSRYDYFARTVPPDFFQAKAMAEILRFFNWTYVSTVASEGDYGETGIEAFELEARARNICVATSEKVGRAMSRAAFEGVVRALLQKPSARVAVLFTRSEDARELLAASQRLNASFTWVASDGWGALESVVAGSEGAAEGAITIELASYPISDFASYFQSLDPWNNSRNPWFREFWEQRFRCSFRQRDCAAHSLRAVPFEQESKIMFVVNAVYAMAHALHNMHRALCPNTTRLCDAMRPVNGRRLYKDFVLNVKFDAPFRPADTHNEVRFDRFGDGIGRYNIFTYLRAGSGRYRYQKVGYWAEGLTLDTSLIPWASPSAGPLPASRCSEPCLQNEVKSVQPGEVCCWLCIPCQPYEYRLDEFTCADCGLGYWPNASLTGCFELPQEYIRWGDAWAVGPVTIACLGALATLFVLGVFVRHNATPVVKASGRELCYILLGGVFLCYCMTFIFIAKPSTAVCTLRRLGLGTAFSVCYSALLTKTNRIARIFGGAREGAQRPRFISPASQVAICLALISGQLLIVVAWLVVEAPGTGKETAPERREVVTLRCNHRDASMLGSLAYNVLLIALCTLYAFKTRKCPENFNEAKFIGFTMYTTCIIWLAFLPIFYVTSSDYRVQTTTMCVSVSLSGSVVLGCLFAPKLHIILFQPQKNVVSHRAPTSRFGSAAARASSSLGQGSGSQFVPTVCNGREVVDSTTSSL
row,EC50,Structure (SMILES)
1,1310 nM,"COc1cc(C(F)(F)F)ccc1[C@H]1CCN(Cc2nc3cnccc3n2C)C[C@H]1C (single isomer, unassigned) [compound 141]"
2,159 nM,Cc1ccc([C@H]2CCN(Cc3nc4cnccc4n3C)C[C@H]2C)c(Cl)c1 (relative stereo) [compound 209]
3,> 5360 nM,CCOc1ccc([C@H]2CCN(Cc3nc4cnccc4n3C)C[C@H]2C)cc1F (relative stereo) [compound 194]
4,66.3 nM,C[C@@H]1CN(Cc2nc3cnccc3n2C)CC[C@@H]1c1ccc(C(F)(F)F)cc1Cl (relative stereo) [compound 152]
5,1180 nM,"C[C@@H]1CN(Cc2nc3cnccc3n2C)CC[C@@H]1c1ccc(C(F)(F)F)cc1F (single isomer, unassigned) [compound 143]"
6,209 nM,C[C@@H]1CN(Cc2nc3cnccc3n2C)CC[C@@H]1c1ccc(OC(F)(F)F)c(Cl)c1 (relative stereo) [compound 212]
7,60.6 nM,"CC(C)Oc1ccc([C@H]2CCN(Cc3nc4cnccc4n3C)C[C@H]2C)c(F)c1 (single isomer, unassigned) [compound 219]"
8,514 nM,Cc1cc(OC(F)(F)F)ccc1[C@H]1CCN(Cc2nc3cnccc3n2C)C[C@H]1C (relative stereo) [compound 165]

# Further lines, the compound ahead of its results:
row,Structure (SMILES),EC50
1,C[C@@H]1CN(Cc2nc3ncccc3n2C)CC[C@@H]1c1cc(F)c(F)cc1F (relative stereo) [compound 179],381 nM
2,"C[C@@H]1CN(Cc2nc3cnccc3n2C)CC[C@@H]1c1ccc(OC(F)(F)F)cc1 (single isomer, unassigned) [compound 175]",> 3200 nM
3,"C[C@@H]1CN(Cc2nc3ncccc3n2C)CC[C@@H]1c1ccc(OC(F)F)cc1 (single isomer, unassigned) [compound 224]",> 1920 nM
4,"C[C@@H]1CN(Cc2nc3cnccc3n2C)CC[C@@H]1c1ccc(C(F)(F)F)c(F)c1 (single isomer, unassigned) [compound 183]",53.2 nM
5,Cn1c(CN2CCC(c3ccc(C(F)(F)F)cc3)CC2)nc2cnccc21 [compound 47],168 nM
6,CO[C@@H]1CN(Cc2nc3cnccc3n2C)CC[C@@H]1c1ccc(C(F)(F)F)cc1 (relative stereo) [compound 227],606 nM
7,CC(C)Oc1ccc([C@H]2CCN(Cc3nc4ncccc4n3C)C[C@H]2C)c(Cl)c1 (relative stereo) [compound 169],174 nM
8,"C[C@@H]1CN(Cc2nc3cnccc3n2C)CC[C@@H]1c1cc(F)c(F)cc1F (single isomer, unassigned) [compound 225]",95 nM
9,Cn1c(CN2CCC(c3cccc(F)c3F)CC2)nc2ncccc21 [compound 108],307 nM
10,Cn1c(CN2CCC(c3cccc(C(C)(C)C)c3)CC2)nc2ncccc21 [compound 79],124 nM
11,"FC(F)(F)c1ccc(C2CCN(Cc3nc4nccc5c4n3CCC5)CC2)cc1 [Example 126, 2-({4-[4-(trifluoromethyl)phenyl]-piperidin-1-yl}methyl)-5,6-dihydro-4H-imidazo[4,5,1-ij]-1,7-naphthyridine]",62.6 nM
12,COc1ccccc1[C@]1(C)CCN(Cc2nc3ncccc3n2C)C[C@@H]1C [compound 56],3820 nM
13,CC(C)Oc1ccc([C@H]2CCN(Cc3nc4cnccc4n3C)C[C@H]2C)c(C(F)(F)F)c1 (relative stereo) [compound 216],287 nM
14,COc1cc(C(F)(F)F)ccc1C1CCN(Cc2nc3cnccc3n2C)CC1 [compound 63],834 nM
15,"CC(C)Oc1ccc([C@H]2CCN(Cc3nc4ncccc4n3C)C[C@H]2C)c(Cl)c1 (single isomer, unassigned) [compound 222]",> 603 nM
16,Cc1cc(NC(=O)c2cccc(C3CCN(Cc4nc5ncccc5n4C)CC3)c2)n[nH]1 [compound 105],3660 nM

# Same assay, conditions: HEK cells stably transfected with mGluR2 and Gα15; FLIPR (Fluo-4); potentiation of an EC10 to EC20 concentration of glutamate; Table 9
row,EC50,Structure (SMILES)
1,62.6 nM,"FC(F)(F)c1ccc(C2CCN(Cc3nc4nccc5c4n3CCC5)CC2)cc1 [Example 126, 2-({4-[4-(trifluoromethyl)phenyl]-piperidin-1-yl}methyl)-5,6-dihydro-4H-imidazo[4,5,1-ij]-1,7-naphthyridine]"

# Same assay, conditions: mGluR2 potentiator screen, FLIPR, EC10-EC20 glutamate challenge
row,EC50,Structure (SMILES)
1,12.7 nM,Cn1c(CN2CCC(c3ccc(C(F)(F)F)cc3F)CC2)nc2ncccc21 [compound 268]
2,212 nM,Cn1c(CN2CCC(c3c(F)cccc3C(F)(F)F)CC2)nc2ncccc21 [compound 229]
